Usually inhibition in vivo stands for the share of the control response that was lost under treatment.

Results on 18 compounds are retold here after ChEMBL document CHEMBL1949529, “Substrate specificity of acetoxy derivatives of coumarins and quinolones towards Calreticulin mediated transacetylation: investigations on antiplatelet function” (Bioorg Med Chem, 2012).

Experiment [1] in a line: Inhibition of platelet CRTAase assessed as inhibition of platelet aggregation at 50 uM by spectrophotometry.
Experiment [2] relates to Rattus norvegicus. Briefly: Inhibition of COX1 activity in TMPD/arachidonic acid-stimulated blood of Sprague-Dawley rat at 160.2 umol/kg, po after 24 hrs by ELISA relative to control. In kind it is functional.
The subject of experiment [3] is Rattus norvegicus. In words: Inhibition of LPS-induced tissue factor expression in Sprague-Dawley rat PBMC at 160.2 umol/kg, po for 5 days by ELISA relative to control. The format is functional. For orientation: An ELISA detects its analyte on a solid surface through an enzyme-linked reagent.
Experiment [4] is described as follows: (§1) Antiplatelet activity in human platelet rich plasma assessed as inhibition of arachidonic acid-induced aggregation preincubated for 10 mins before arachidonic acid challenge by aggregometry method. In kind it is functional, cell-free.
Experiment [5] has as its system Rattus norvegicus. Briefly: Inhibition of arachidonic acid-induced aggregation in Sprague-Dawley rat blood at 50.6 umol/kg, po treated for 24 hrs before arachidonic acid challenge by aggregometry method. In kind it is functional.
Experiment [6] concerns Rattus norvegicus. Briefly: Inhibition of TxB2 production in arachidonic acid-stimulated blood of Sprague-Dawley rat assessed per mg of protein at 160.2 umol/kg, po, measured after 24 hrs by ELISA (reference value: 85.4 pg/mg of protein). The format is functional.
Experiment [7] has as its system Rattus norvegicus. In words: Inhibition of ADP-induced platelet aggregation in Sprague-Dawley rat blood at 125.3 umol/kg, po treated for 24 hrs before ADP challenge by aggregometry method. In kind it is functional.
Another experiment deals with PBMC. Briefly: Inhibition of LPS-induced iNOS expression in Sprague-Dawley rat PBMC at 160.2 umol/kg, po for 5 days before LPS challenge by Western blot analysis. The format is functional, organism-based. Background: Immunoblotting shows a protein as a band on a membrane.
The subject of experiment [8] is Rattus norvegicus. Briefly: Antiplatelet activity in arachidonic acid-induced platelet aggregation po dosed Sprague-Dawley rat blood compound treated for 24 hrs before ADP challenge by aggregometry method. In kind it is functional, organism-based.
In experiment [9] the test system is Platelet. The experiment is described as §1. The format is functional, cell-free.
Experiment [10] deals with Rattus norvegicus. In words: Antiplatelet activity in ADP-induced platelet aggregation po dosed Sprague-Dawley rat blood compound treated for 24 hrs before ADP challenge by aggregometry method. In kind it is functional, organism-based.
The subject of experiment [11] is Platelet. Briefly: (§2) Antiplatelet activity in human platelet rich plasma assessed as inhibition of ADP-induced aggregation compound preincubated for 10 mins before ADP addition by aggregometry method. The format is functional, cell-free.
Experiment [12] in a line: as §2. The format is functional, cell-free.
Experiment [13] deals with Platelet. Briefly: Enhancement of nitric oxide production in human platelet rich plasma at 100 uM preincubated for 10 mins before ADP addition by DCFH-DA-based flow cytometry. In kind it is functional, cell-free.

SMILES strings stand for the structures. The source made the active and inactive calls. No cut-off for these calls is given here.

Take `CCCCCCCCCCc1c(C)c2cc(OC(C)=O)ccc2[nH]c1=O`: the inhibition entry in experiment [1] is “Active”.
Same read-out and setting: to `CCc1c(C)c2ccc(OC(C)=O)c(C(C)=O)c2oc1=O` belongs “inactive”; to `CC(=O)Oc1ccc2c(C)cc(=O)oc2c1C(C)=O`, “inactive”.
`CC(=O)Nc1ccc2c(C)cc(=O)[nH]c2c1`: in [1], the inhibition result is “Active”.
Consider `CCc1c(C)c2cc(C(C)=O)c(OC(C)=O)cc2oc1=O`, for which, in experiment [1], the inhibition result is “inactive”.
In the case of `CCCCCCCCCCc1c(C)c2ccc(NC(C)=O)cc2oc1=O`, the inhibition result in experiment [1] was “Active”.
Still for that read-out and setting: to `CCc1c(C)c2ccc(NC(C)=O)cc2oc1=O` belongs “Active”.
On the same count and under the same terms, the result for `CC(=O)Oc1ccc2c(C(F)(F)F)cc(=O)[nH]c2c1` reads “Active”; that for `CCCCc1c(C)c2cc(OC(C)=O)ccc2[nH]c1=O`, “Active”.
On the same count and under the same terms, to `CC(=O)Oc1ccc2[nH]c(=O)cc(C(F)(F)F)c2c1` belongs “Active”; to `CC(=O)Oc1cc2oc(=O)cc(C)c2cc1C(C)=O`, “inactive”.
Turning to `CC(=O)Oc1ccccc1C(=O)O` [ASPIRIN], the inhibition entry in the experiment with Rattus norvegicus [2] was “Active”. In addition, the “fold change (FC)” value with Rattus norvegicus [3] came out at 4.95; with Rattus norvegicus [6] it was 0.42. Besides, in experiment [4], the IC50 is 80 µM. The inhibition in vivo at 50.6 µmol/kg with Rattus norvegicus [5] was found to be 55%. The inhibition in vivo at 125.3 µmol/kg with Rattus norvegicus [7] came out at 52%. The inhibition entry in the experiment with PBMC is “inactive”.
For `CCCCCCc1c(C)c2ccc(NC(C)=O)cc2oc1=O`, the inhibition result in experiment [1] was “Active”.
The same measure, in the same setting: the result for `CCCCCCCCc1c(C)c2cc(OC(C)=O)ccc2[nH]c1=O` reads “Active”.
Still for that read-out and setting: to `CC(=O)Nc1ccc2c(C(F)(F)F)cc(=O)oc2c1` belongs “Active”.
In the case of `CC(=O)Nc1ccc2c(C)cc(=O)oc2c1`, the entries for the “fold change (FC)” value in the experiment with Rattus norvegicus [2], with Rattus norvegicus [3] and in the experiment with Rattus norvegicus [6] were 3.34, 1.93 and 0.39, respectively. The Activity result in the experiment on Rattus norvegicus [8] and in the experiment on Rattus norvegicus [10] was “Dose-dependent effect” in each case. In addition, the inhibition entry with Platelet [9] and in the experiment with Platelet [11] was “Dose-dependent effect” throughout. Further, the figures for the IC50 (in [4]; in the experiment with Rattus norvegicus [10]; in [12]) were 77 µM, 125.3 µmol/kg and 145 µM, respectively. Further, the inhibition entry (with PBMC; in experiment [1]) was “Active” in each case. Moreover, the result with Platelet [13] was Active.
As for `CCc1c(C)c2ccc(NC(C)=O)cc2[nH]c1=O`, the inhibition result in experiment [1] is “Active”.
For `CC(=O)Nc1ccc2c(C(F)(F)F)cc(=O)[nH]c2c1`, the inhibition entry in experiment [1] is “Active”.
